≈ marks a conversion by molar mass, not a printed value. Where two headings read alike, the source gives them in different places. Ends that are not written are not given here. Peptide text beside a SMILES is read from it. * marks the point of attachment. Acm = CC(=O)NC*
How the values were obtained:
Format in all cases: cell-based
human red blood cells = experiment: Hemolytic assay; settings: for % Hemolysis 10 μg/ml / % Hemolysis 100 μg/ml: red cells of human
Description: The hemolytic activities of the peptides were determined using fresh human red blood cells. 8 ml blood was taken from a healthy person. 4 ml blood was transferred to a polycarbonate tube containing heparin to a final concentration of 10 U/ml, and the remaining 4 ml blood was transferred to a glass tube containing EDTA with final concentration of 15% EDTA. The erythrocytes were isolated from heparin-treated blood by centrifugation in 1500 rpm for 10 min and washed three times with phosphate-buffered saline (PBS) to remove plasma and buffy coat. The cell pellet was resuspended in PBS to make the final volume of 4 ml. The peptide was diluted to a concentration of 2 mg/ml and 0.1 mg/ml. The peptide was further diluted to the concentrations as stated in Table 15. For each tube PBS was added first, then RBCs and peptide solutions. The hematocrit in the blood treated with EDTA was determined after 30 min with Sysmex K-1000, and the resuspended RBCs were diluted into 10% hematocrit. RBCs in PBS (1%) with and without peptides (Table 15) were incubated in a shaker at […] for 1 hour and then centrifuged at 4000 rpm for 5 min. The supernatant were carefully transferred to new polycarbonate tubes and the absorbance of the supernatant was measured at 540 nm. Baseline hemolysis was hemoglobin released in the presence of PBS, and 100% hemolysis was hemoglobin released in the presence of 0.1% Triton X-100.

[1] = test system: Staphylococcus aureus ATCC 25923
Method in brief: (§1)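 Inoculum of 2×10^6 CFU/ml, mid-logarithmic growth phase, in 1% Bacto Peptone water; standard microdilution, performed in triplicate.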

[2] = test system: Escherichia coli ATCC 25922
Method in brief: as §1

Compound	% Hemolysis 10 μg/ml (human red blood cells)	% Hemolysis 100 μg/ml (human red blood cells)	MIC S. aureus ([1]; ATCC 25923)	MIC S. aureus ([1]; Table 6, unit assumed)	MIC E. coli ([2]; ATCC 25922)	MIC E. coli ([2]; Table 6)	MIC S. aureus ([1]; Table 3, unit assumed)	MIC E. coli ([2]; Table 3)	EC 50 (human red blood cells)	EC50 (human red blood cells)	MIC S. aureus ([1]; Table 12)	MIC E. coli ([2]; Table 12)
CSCC[C@H](NC(=O)[C@H](CCCNC(=N)N)NC(=O)[C@H](Cc1c[nH]c2ccccc12)NC(=O)[C@H](CCC(N)=O)NC(=O)[C@H](Cc1c[nH]c2ccccc12)NC(=O)[C@H](CCCNC(=N)N)NC(=O)[C@H](CCCNC(=N)N)NC(=O)[C@H](CSCNC(C)=O)NC(=O)[C@H](CCCCN)NC(=O)[C@@H](N)Cc1ccccc1)C(=O)N[C@@H](CCCCN)C(=O)N[C@@H](CCCCN)C(=O)N[C@@H](CC(C)C)C(=O)N[C@@H](Cc1c[nH]c2ccccc12)C(=O)N[C@@H](C)C(=O)O [LFB W14, H2N-Phe-Lys-Cys-Arg-Arg-Trp-Gln-Trp-Arg-Met-Lys-Lys-Leu-Trp-Ala-COOH] (H-FKC(Acm)RRWQWRMKKLWA-OH)	3%	4.1%	25 µg/mL (≈ 11.4 µM)	25 µg/mL (≈ 11.4 µM)	20 µg/mL (≈ 9.11 µM)	20 µg/mL (≈ 9.11 µM)	–	–	–	–	–	–
CSCC[C@H](NC(=O)[C@H](CCC(=O)O)NC(=O)[C@H](Cc1c[nH]c2ccccc12)NC(=O)[C@H](CCC(N)=O)NC(=O)[C@H](Cc1c[nH]c2ccccc12)NC(=O)[C@H](CCCNC(=N)N)NC(=O)[C@H](CC(C)C)NC(=O)[C@H](CSCNC(C)=O)NC(=O)[C@H](CCCCN)NC(=O)[C@H](C)N)C(=O)N[C@@H](CCCNC(=N)N)C(=O)N[C@@H](CCCCN)C(=O)N[C@H](C(=O)NCC(=O)NCC(=O)O)C(C)C [LFM A1 W8] (H-AKC(Acm)LRWQWEMRKVGG-OH; N-terminus assumed)	2.4%	3%	>1000 µg/mL	–	750 µg/mL (≈ 391 µM)	–	–	–	–	–	–	–
CSCC[C@H](NC(=O)[C@H](C)NC(=O)[C@H](Cc1c[nH]c2ccccc12)NC(=O)[C@H](CCC(N)=O)NC(=O)[C@H](Cc1c[nH]c2ccccc12)NC(=O)[C@H](CCCNC(=N)N)NC(=O)[C@H](CC(C)C)NC(=O)[C@H](CSCNC(C)=O)NC(=O)[C@H](CCCCN)NC(=O)[C@H](C)N)C(=O)N[C@@H](CCCNC(=N)N)C(=O)N[C@@H](CCCCN)C(=O)N[C@H](C(=O)NCC(=O)NCC(=O)O)C(C)C [LFM A1, 9 W8] (H-AKC(Acm)LRWQWAMRKVGG-OH; N-terminus assumed)	2.8%	3.7%	>1000 µg/mL	–	200 µg/mL (≈ 107 µM)	–	–	–	–	–	–	–
CSCC[C@H](NC(=O)[C@H](C)NC(=O)[C@H](Cc1c[nH]c2ccccc12)NC(=O)[C@H](CCC(N)=O)NC(=O)[C@H](Cc1c[nH]c2ccccc12)NC(=O)[C@H](CCCNC(=N)N)NC(=O)[C@H](CC(C)C)NC(=O)[C@H](CSCNC(C)=O)NC(=O)[C@H](CCCCN)NC(=O)[C@@H](N)CCC(=O)O)C(=O)N[C@@H](CCCNC(=N)N)C(=O)N[C@@H](CCCCN)C(=O)N[C@H](C(=O)NCC(=O)NCC(=O)O)C(C)C [LFM A9 W8] (H-EKC(Acm)LRWQWAMRKVGG-OH; N-terminus assumed)	2.5%	3.5%	>1000 µg/mL	–	>1000 µg/mL	–	–	–	–	–	–	–
CSCC[C@H](NC(=O)[C@H](CCCNC(=N)N)NC(=O)[C@H](Cc1c[nH]c2ccccc12)NC(=O)[C@H](CCC(N)=O)NC(=O)[C@H](Cc1c[nH]c2ccccc12)NC(=O)[C@H](CCCNC(=N)N)NC(=O)[C@H](CC(C)C)NC(=O)[C@H](CSCNC(C)=O)NC(=O)[C@H](CCCCN)NC(=O)[C@@H](N)CCCNC(=N)N)C(=O)N[C@@H](CCCNC(=N)N)C(=O)N[C@@H](CCCCN)C(=O)N[C@H](C(=O)NCC(=O)NCC(=O)O)C(C)C [LFM R1, 9 W8] (H-RKC(Acm)LRWQWRMRKVGG-OH; N-terminus assumed)	3.69%	–	75 µg/mL (≈ 36.9 µM)	–	25 µg/mL (≈ 12.3 µM)	–	–	–	–	–	–	–
CSCC[C@H](NC(=O)[C@H](CCC(=O)O)NC(=O)[C@H](Cc1c[nH]c2ccccc12)NC(=O)[C@H](CCC(N)=O)NC(=O)[C@H](Cc1c[nH]c2ccccc12)NC(=O)[C@H](CCCNC(=N)N)NC(=O)[C@H](CC(C)C)NC(=O)[C@H](CSCNC(C)=O)NC(=O)[C@H](CCCCN)NC(=O)[C@@H](N)CCCNC(=N)N)C(=O)N[C@@H](CCCNC(=N)N)C(=O)N[C@@H](CCCCN)C(=O)N[C@H](C(=O)NCC(=O)NCC(=O)O)C(C)C [LFM R1, W8] (H-RKC(Acm)LRWQWEMRKVGG-OH; N-terminus assumed)	2.8%	3.48%	500 µg/mL (≈ 249 µM)	–	75 µg/mL (≈ 37.4 µM)	–	–	–	–	–	–	–
CSCC[C@H](NC(=O)[C@H](CCCNC(=N)N)NC(=O)[C@H](Cc1c[nH]c2ccccc12)NC(=O)[C@H](CCC(N)=O)NC(=O)[C@H](Cc1c[nH]c2ccccc12)NC(=O)[C@H](CCCNC(=N)N)NC(=O)[C@H](CC(C)C)NC(=O)[C@H](CSCNC(C)=O)NC(=O)[C@H](CCCCN)NC(=O)[C@@H](N)CCC(=O)O)C(=O)N[C@@H](CCCNC(=N)N)C(=O)N[C@@H](CCCCN)C(=O)N[C@H](C(=O)NCC(=O)NCC(=O)O)C(C)C [LFM R9 W8] (H-EKC(Acm)LRWQWRMRKVGG-OH; N-terminus assumed)	3.1%	4.59%	>1000 µg/mL	–	500 µg/mL (≈ 249 µM)	–	–	–	–	–	–	–
CSCC[C@H](NC(=O)[C@H](CCC(=O)O)NC(=O)[C@H](Cc1c[nH]c2ccccc12)NC(=O)[C@H](CCC(N)=O)NC(=O)[C@H](Cc1c[nH]c2ccccc12)NC(=O)[C@H](CCCNC(=N)N)NC(=O)[C@H](CC(C)C)NC(=O)[C@H](CSCNC(C)=O)NC(=O)[C@H](CCCCN)NC(=O)[C@@H](N)CCC(=O)O)C(=O)N[C@@H](CCCNC(=N)N)C(=O)N[C@@H](CCCCN)C(=O)N[C@H](C(=O)NCC(=O)NCC(=O)O)C(C)C [LFM W8, H2N-Glu-Lys-Cys-Leu-Arg-Trp-Gln-Trp-Glu-Met-Arg-Lys-Val-Gly-Gly-COOH] (H-EKC(Acm)LRWQWEMRKVGG-OH)	2.6%	4.8%	1000 µg/mL (≈ 506 µM)	–	>1000 µg/mL	–	–	–	–	–	–	–
CSCC[C@H](NC(=O)[C@H](CCC(=O)O)NC(=O)[C@H](CC(N)=O)NC(=O)[C@H](CCC(N)=O)NC(=O)[C@H](Cc1c[nH]c2ccccc12)NC(=O)[C@H](CCCNC(=N)N)NC(=O)[C@H](CC(C)C)NC(=O)[C@H](CSCNC(C)=O)NC(=O)[C@H](CCCCN)NC(=O)[C@@H](N)CCC(=O)O)C(=O)N[C@@H](CCCNC(=N)N)C(=O)N[C@@H](CCCCN)C(=O)N[C@H](C(=O)NCC(=O)NCC(=O)O)C(C)C [LFM, EKCLRWQNEMRKVGG] (H-EKC(Acm)LRWQNEMRKVGG-OH; N-terminus assumed)	2.3%	3.1%	>1000 µg/mL	–	>1000 µg/mL	–	–	–	–	–	–	–
CSCC[C@H](NC(=O)[C@H](CCCCN)NC(=O)[C@H](CCCCN)NC(=O)[C@H](CC(C)C)NC(=O)CNC(=O)[C@H](C)N)C(=O)N[C@@H](CCCNC(=N)N)C(=O)N[C@@H](Cc1c[nH]c2ccccc12)C(=O)N[C@@H](CCC(N)=O)C(=O)N[C@@H](Cc1c[nH]c2ccccc12)C(=O)N[C@@H](CCCNC(=N)N)C(=O)N[C@@H](CCCNC(=N)N)C(=O)N[C@@H](CSCNC(C)=O)C(=O)N[C@@H](CCCCN)C(=O)N[C@@H](Cc1ccccc1)C(=O)O [Retro LFB 17-31]	2.01%	–	–	–	–	–	200 µg/mL (≈ 96.8 µM)	80 µg/mL (≈ 38.7 µM)	–	–	–	–
CSCC[C@@H](NC(=O)[C@@H](CCCCN)NC(=O)[C@@H](CCCCN)NC(=O)[C@@H](CC(C)C)NC(=O)CNC(=O)[C@@H](C)N)C(=O)N[C@H](CCCNC(=N)N)C(=O)N[C@H](Cc1c[nH]c2ccccc12)C(=O)N[C@H](CCC(N)=O)C(=O)N[C@H](Cc1c[nH]c2ccccc12)C(=O)N[C@H](CCCNC(=N)N)C(=O)N[C@H](CCCNC(=N)N)C(=O)N[C@H](CSCNC(C)=O)C(=O)N[C@H](CCCCN)C(=O)N[C@H](Cc1ccccc1)C(=O)O [Retro-Enantio LFB 17-31]	3.31%	–	–	–	–	–	80 µg/mL (≈ 38.7 µM)	6.25 µg/mL (≈ 3.03 µM)	–	–	–	–
H-FKWRRWQWRMKKLWA-OH [LFB W3, 14, H2N-Phe-Lys-Trp-Arg-Arg-Trp-Gln-Trp-Arg-Met-Lys-Lys-Leu-Trp-Ala-COOH]	3.1%	5.1%	–	10 µg/mL	–	10 µg/mL	–	–	>1000 µg/mL	> 453 µM	10 µg/mL	10 µg/mL
RRWQWRMKKLG-OH [LFB 20-30]	2.16%	3.1%	>100 µg/mL	–	40 µg/mL	–	–	–	–	–	–	–

From patent US20030022821A1, “Bioactive peptides” (priority 1998, published 2003)
